Data taken from patent US11092549B2, “Fluorescent probes for drug permeability in gram negative bacteria” (Saint Louis University, priority 2018, dated 2021).
In brackets after ≈: the same amount, converted by molar mass.

How the values were obtained:
[1] = tested on: Δ6-Pore cells; experiment: Minimal inhibitory concentration (MIC) of fluorescent probes; type: cell-based, P. aeruginosa
Description: For assessing antibacterial activities, compounds will be analyzed against four strains of P. aeruginosa: WT and ΔEfflux (lacking mexAB-OprM, mexCD-OprJ, mexXY), and their hyperporinated variants WT-Pore and ΔEfflux-Pore (FIGS. 2A-C) (Krishnamoorthy et al., 2016 and Krishnamoorthy et al., 2017). Based on minimal inhibitory concentrations (MIC) and growth IC50, compounds will be grouped as affected by efflux or by OM barriers. […] The inventors expect that at least 50% of the compounds in the library will have antibacterial activities in the hyperporinated efflux-deficient ΔEfflux-Pore. The -fold changes in MICs in the four strains will be used to guide selection of the compounds for detailed studies.
The inventors will use a fluorescence-based assay in which a fluorescent probe, a substrate of efflux pumps, reports EPI activities. Exponentially grown cells will be transferred into a defined medium, dispensed into 96-well plates with increasing concentrations of EPIs, and incubated for a pre-determined time. The probe will be added to cells and fluorescence recorded at different time points. Compounds with efflux inhibiting activities will increase the uptake of the probe and as a result increase the probe fluorescence (FIG. 3) (Abdali et al., 2017). […]

[2] = tested on: E. coli BW25113 and P. aeruginosa PAO1; experiment: Screen of NCI Diversity sets for antibacterial and EPI activities, with profiling of actives; type: cell-based
Description: The inventors screened NCI Diversity sets in E. coli BW25113 and P. aeruginosa PAO1 for antibacterial and EPI activities. From ˜2,000 compounds tested, the inventors identified 34 active compounds (Abdali et al., 2017). […] Synthetic procedures for modifying NSC 60339 has been described before (Abdali et al., 2017 and Gamage et al., 2013). Because clinically-important antibiotics are extensively optimized, the inventors have chosen to focus on fluoroquinolones, tetracyclines, oxazolidinones, phenicols and macrolides/ketolides representatives that are known to penetrate through both the LPS-phospholipid bilayer and porins of the OM and include both broad and narrow spectrum antibiotics.

[3] = tested on: E. coli strains BW25113, ΔEfflux, WT-Pore and ΔEfflux-Pore; experiment: Fluorescence-based intracellular uptake of compounds in efflux-proficient, efflux-deficient and hyperporinated cells (FIG. 3); settings: when the cell envelope is compromised, excitation 335 nm
Description: For Hoechst or compound uptake experiments, overnight grown cells will be re-inoculated into 30 ml LB broth and grown until OD600 of 1. The cells will then pelleted by centrifugation for 15 min at room temperature and washed once in HMG buffer. The pellet will be resuspended in HMG buffer to OD600 of 2.0 and kept at room temperature during the course of the experiment. For the efflux inhibition or uptake kinetics, 100 μl of Hoechst or compound solution in HMG buffer with and without increasing concentrations of inhibitors at twice the concentrations indicated will be added into a black F-bottom non-binding 96-well plate. Fluorescence of Hoechst or compounds will be followed at λex=355 nm and λem=450 nm. To this, 100 μl of cells at OD600 of 2.0 was injected, shaken for 6 sec and the fluorescence of Hoechst will be monitored continuously for up to 10 min.
The inventors will use a fluorescence-based assay in which a fluorescent probe, a substrate of efflux pumps, reports EPI activities. Exponentially grown cells will be transferred into a defined medium, dispensed into 96-well plates with increasing concentrations of EPIs, and incubated for a pre-determined time. The probe will be added to cells and fluorescence recorded at different time points. Compounds with efflux inhibiting activities will increase the uptake of the probe and as a result increase the probe fluorescence (FIG. 3) (Abdali et al., 2017). The reverse kinetic curves, in which the concentration of the compound is fixed while the probe concentration varies, will be also collected. Detailed quantification of the kinetic data will be performed using two probes: a DNA dye Hoechst 33342 (HT) (Eicher et al., 2012; Nakashima et al., 2011 and Richmond et al., 2013) and a novel SLU-417 probe that were synthesized during a focused synthetic effort (Haynes et al., 2017). HT is a topoisomerase inhibitor with the MIC 2 μM in Δ6-Pore cells. In contrast, SLU-417 is relatively inert with MIC≥50 μM, which should reduce possible non-specific effect during drug uptake measurements.
Experiments were carried out in four E. coli strains, BW25113, a wild type strain with efflux pumps, ΔEfflux, a cell line in which the efflux pumps have been inactivated by removal of tolC gene and their hyperporinated variants WT-Pore and ΔEfflux-Pore. Four compounds were tested in these cell lines which show increased fluorescence intensity in cells in which the efflux pumps have been removed (FIG. 3).

Row | Structure (SMILES) | intracellular uptake [3] | other results
1 | CCOc1ccc(-c2nc3ccc(-c4nc5ccc(N6CCN(C)CC6)cc5[nH]4)cc3[nH]2)cc1 [HT, Hoechst 33342, reference compound] | – | MIC ([1]; Δ6-Pore cells): 2 µM (≈ 0.905 µg/mL)
2 | O=C(Nc1ccc(C2=NCCN2)cc1)c1ccc(C(=O)Nc2ccc(C3=NCCN3)cc2)c(Cl)c1 [NSC 60339] | – | antibacterial and anti-MFP (Membrane Fusion Protein) activities [2]: have both antibacterial and anti-MFP; substrate of efflux pumps [2]: modest substrate of efflux pumps
3 | CC(C)c1ccc(/C=C/C(=O)Nc2ccc(C3=NCCN3)cc2)cc1 [SLU-417] | increases | MIC ([1]; Pseudomonas aeruginosa): ≥ 50 µM
4 | O=C(Nc1ccc(C2=NCCN2)cc1)c1ccc(-c2cc(Cl)cc(Cl)c2)s1 [SLU-446] | increases | –
5 | COc1ccc(/C=C/C(=O)Nc2ccc(C3=NCCN3)cc2)cc1 [SLU-448] | increases | –
6 | O=C(Nc1ccc(C2=NCCN2)cc1)c1cc2cc(Cl)ccc2o1 [SLU-843] | increases | –
